In patent US20250215029A1 (Recludix Pharma, Inc., priority 2022, published 2025) one finds IC50 data, which are given here for 19 molecules.

The target of the assay is T1, pY705-STAT3 in PBMC (Homo sapiens, UniProt P40763).
T1 construct: Cryopreserved Peripheral Blood Mononuclear Cells (PBMC) are from AllCells; host or cells: cryopreserved PBMC
T1 sequence (P40763 whole entry): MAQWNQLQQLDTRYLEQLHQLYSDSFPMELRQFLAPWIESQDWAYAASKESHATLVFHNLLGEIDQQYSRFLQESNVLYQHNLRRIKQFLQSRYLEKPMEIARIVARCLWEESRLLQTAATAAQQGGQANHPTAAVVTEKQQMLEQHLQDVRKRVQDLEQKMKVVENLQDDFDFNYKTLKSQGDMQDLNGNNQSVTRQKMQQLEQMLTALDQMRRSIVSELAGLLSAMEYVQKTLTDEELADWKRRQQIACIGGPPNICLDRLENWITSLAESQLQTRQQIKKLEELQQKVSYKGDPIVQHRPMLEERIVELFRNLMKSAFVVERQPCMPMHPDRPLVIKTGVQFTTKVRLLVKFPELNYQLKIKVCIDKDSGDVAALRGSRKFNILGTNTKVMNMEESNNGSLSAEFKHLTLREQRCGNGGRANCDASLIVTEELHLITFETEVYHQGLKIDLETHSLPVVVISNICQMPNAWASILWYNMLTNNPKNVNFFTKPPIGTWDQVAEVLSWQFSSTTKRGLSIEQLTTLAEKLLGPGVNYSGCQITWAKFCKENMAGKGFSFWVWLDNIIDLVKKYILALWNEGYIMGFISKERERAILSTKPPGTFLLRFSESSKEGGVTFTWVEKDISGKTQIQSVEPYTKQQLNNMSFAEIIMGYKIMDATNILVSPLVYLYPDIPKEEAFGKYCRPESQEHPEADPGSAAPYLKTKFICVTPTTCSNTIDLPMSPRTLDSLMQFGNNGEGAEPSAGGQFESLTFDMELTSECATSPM
Briefly: MSD-pSTAT-PBMC Assay (pSTAT3, IL-6 stimulated). Type of assay: cell-based. Conditions: PBMC, compound 3 hrs, then 10 ng/mL IL-6 for 10 min; Table 115; read-out: STAT3. The gist of the method: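 Thawed human PBMC rested overnight in IMDM/10% FBS, then got compound for 3 hrs before a 10 min cytokine pulse: 1 ng/mL IL-4 for pSTAT6, 10 ng/mL IL-6 for pSTAT3. Lysates went to MSD sandwich capture on total STAT6 or STAT3 with phospho-specific detection. IC50 came from background-subtracted, DMSO-normalized signal.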
On to `CC(C)CC(=O)SCCOP(=O)(OCOC(=O)OC1COC1)C(F)(F)c1ccc2sc(C(=O)N[C@H]3CCC[C@H]4CC[C@@H](C(=O)N5CC(c6ncccn6)C5)N4C3=O)cc2c1` (stereo partly drawn) [Compound 1095, S-(2-(((difluoro(2-(((3S,6S,9aS)-5-oxo-3-(3-(pyrimidin-2-yl)azetidine-1-carbonyl)octahydro-1H-pyrrolo[1,2-a]azepin-6-yl)carbamoyl)benzo [b]thiophen-5-yl)methyl) ((((oxetan-3-yloxy)carbonyl)oxy)methoxy)phosphoryl)oxy)ethyl) 3-methyl-butanethioate], for which the IC50 is under 100 nM.
Take `CCCOC(=O)[C@H](C)NP(=O)(Oc1ccccc1)C(F)c1ccc2sc(C(=O)N[C@H]3CCC[C@H]4CC[C@@H](C(=O)N5CC(c6cnccc6O)C5)N4C3=O)cc2c1` (stereo partly drawn) [Compound 974, propyl ((fluoro(2-(((3S,6S,9aS)-3-(3-(4-hydroxypyridin-3-yl)azetidine-1-carbonyl)-5-oxooctahydro-1H-pyrrolo[1,2-a]azepin-6-yl)carbamoyl)benzo [b]thiophen-5-yl)methyl)(phenoxy)phosphoryl)-L-alaninate]: the IC50 fell in the range of 100 to 1000 nM.
Take `COC[C@H](NP(=O)(Cc1ccc2sc(C(=O)N[C@H]3CCC[C@H]4CC[C@@H](C(=O)N5CC(c6cccnc6)C5)N4C3=O)cc2c1)Oc1ccccc1)C(=O)OCc1ccccc1` (stereo partly drawn) [Compound 946, benzyl O-methyl-N-(((2-(((3S,6S,9aS)-5-oxo-3-(3-(pyridin-3-yl)azetidine-1-carbonyl)octahydro-1H-pyrrolo[1,2-a]azepin-6-yl)carbamoyl)benzo [b]thiophen-5-yl)methyl)(phenoxy)phosphoryl)-L-serinate]: the IC50 is 100 to 1000 nM.
In the case of `CCCOC(=O)[C@H](C)NP(=O)(Oc1ccccc1)[C@@H](F)c1ccc2sc(C(=O)N[C@H]3CCC[C@H]4CC[C@@H](C(=O)N5CC(c6cnccc6N6CC(OC)C6)C5)N4C3=O)cc2c1` (stereo partly drawn) [Compound 1062, propyl (((R)-fluoro(2-(((3S,6S,9aS)-3-(3-(4-(3-methoxyazetidin-1-yl)pyridin-3-yl)azetidine-1-carbonyl)-5-oxooctahydro-1H-pyrrolo[1,2-a]azepin-6-yl)carbamoyl)benzo [b]thiophen-5-yl)methyl)(phenoxy)phosphoryl)-L-alaninate] it was 100 to 1000 nM.
For `CCCOC(=O)[C@H](C)NP(=O)(Oc1ccccc1)[C@H](F)c1ccc2sc(C(=O)N[C@H]3C[C@@H](C)C[C@H]4CC[C@@H](C(=O)N5CC(c6cncnc6N6CCC6)C5)N4C3=O)cc2c1` (stereo partly shown) [Compound 1078], the IC50 is under 100 nM.
The same measure for `C[C@H](NP(=O)(Oc1ccccc1)C(F)c1ccc2sc(C(=O)N[C@H]3CCC[C@H]4CC[C@@H](C(=O)N5CC(c6cnccc6F)C5)N4C3=O)cc2c1)C(=O)OCCC(F)(F)F` (stereo partly drawn) [Compound 983, 3,3,3-trifluoropropyl ((fluoro(2-(((3S,6S,9aS)-3-(3-(4-fluoropyridin-3-yl)azetidine-1-carbonyl)-5-oxooctahydro-1H-pyrrolo[1,2-a]azepin-6-yl)carbamoyl)benzo [b]thiophen-5-yl)methyl)(phenoxy)phosphoryl)-L-alaninate]: under 100 nM.
The same measure for `CCCOC(=O)[C@H](C)N[P@@](=O)(Oc1ccccc1)[C@H](F)c1ccc2sc(C(=O)N[C@H]3CCC[C@H]4CC[C@@H](C(=O)N5CC(c6cnccc6C)C5)N4C3=O)cc2c1` (single isomer, unassigned) [Compound 1000]: under 100 nM; for `CCCOC(=O)[C@H](C)NP(=O)(Cc1ccc2sc(C(=O)N[C@H]3CCC[C@H]4CC[C@@H](C(=O)N5CC(c6cnccc6N6CCOCC6)C5)N4C3=O)cc2c1)Oc1ccccc1` (stereo partly drawn) [Compound 1038, propyl (((2-(((3S,6S,9aS)-3-(3-(4-morpholinopyridin-3-yl)azetidine-1-carbonyl)-5-oxooctahydro-1H-pyrrolo[1,2-a]azepin-6-yl)carbamoyl)benzo [b]thiophen-5-yl)methyl)(phenoxy)phosphoryl)-L-alaninate]: under 100 nM; for `CCCOC(=O)[C@H](C)NP(=O)(Oc1ccccc1)C(F)c1ccc2sc(C(=O)N[C@H]3CCC[C@H]4CC[C@@H](C(=O)N5CC(c6cnccc6CC)C5)N4C3=O)cc2c1` (stereo partly drawn) [Compound 261, propyl (((2-(((3S,6S,9aS)-3-(3-(4-ethylpyridin-3-yl)azetidine-1-carbonyl)-5-oxooctahydro-1H-pyrrolo[1,2-a]azepin-6-yl)carbamoyl)benzo [b]thiophen-5-yl)fluoromethyl) (phenoxy)phosphoryl)-L-alaninate]: under 100 nM.
As to `CCCOC(=O)[C@H](C)NP(=O)(Cc1ccc2sc(C(=O)N[C@H]3CCC[C@H]4CC[C@@H](C(=O)N5CC(c6cncnc6N6CC[C@H]6COC)C5)N4C3=O)cc2c1)Oc1ccccc1` (stereo partly drawn) [Compound 1072, propyl (((2-(((3S,6S,9aS)-3-(3-(4-((S)-2-(methoxymethyl)azetidin-1-yl)pyrimidin-5-yl)azetidine-1-carbonyl)-5-oxooctahydro-1H-pyrrolo[1,2-a]azepin-6-yl)carbamoyl)benzo [b]thiophen-5-yl)methyl)(phenoxy)phosphoryl)-L-alaninate], the IC50 is under 100 nM.
For `CCCOC(=O)[C@H](C)NP(=O)(Cc1ccc2sc(C(=O)N[C@H]3C[C@@H](C)C[C@H]4CC[C@@H](C(=O)N5CC(c6cnccc6N(C)C)C5)N4C3=O)cc2c1)Oc1ccccc1` (stereo partly drawn) [Compound 1021, propyl (((2-(((3S,6S,8R,9aR)-3-(3-(4-(dimethylamino)pyridin-3-yl)azetidine-1-carbonyl)-8-methyl-5-oxooctahydro-1H-pyrrolo[1,2-a]azepin-6-yl)carbamoyl)benzo [b]thiophen-5-yl)methyl)(phenoxy)phosphoryl)-L-alaninate], the IC50 is under 100 nM.
The same measure for `CCOC(=O)[C@H](C)NP(=O)(Cc1ccc2sc(C(=O)N[C@H]3CCC[C@H]4CC[C@@H](C(=O)N5CC(c6cccnc6)C5)N4C3=O)cc2c1)Oc1ccccc1` (stereo partly drawn) [Compound 422, ethyl (((2-(((3S,6S,9aS)-5-oxo-3-(3-(pyridin-3-yl)azetidine-1-carbonyl)octahydro-1H-pyrrolo[1,2-a]azepin-6-yl)carbamoyl)benzo [b]thiophen-5-yl)methyl)(phenoxy)phosphoryl)-L-alaninate]: under 100 nM; for `COc1ccncc1C1CN(C(=O)[C@@H]2CC[C@@H]3CCC[C@H](NC(=O)c4cc5cc([C@H](F)[P@@](=O)(N[C@@H](C)C(=O)OC(C)C)Oc6ccccc6)ccc5s4)C(=O)N32)C1` (single isomer, unassigned) [Compound 1052]: 100 to 1000 nM; for `CCCOC(=O)[C@H](C)NP(=O)(Oc1ccccc1)C(F)c1ccc2sc(C(=O)N[C@H]3CCC[C@H]4CC[C@@H](C(=O)N5CC6(C5)OCc5ccncc56)N4C3=O)cc2c1` (stereo partly drawn) [Compound 952, propyl ((fluoro(2-(((3S,6S,9aS)-5-oxo-3-(1′H-spiro [azetidine-3,3′-furo[3,4-c]pyridine]-1-carbonyl)octahydro-1H-pyrrolo[1,2-a]azepin-6-yl)carbamoyl)benzo [b]thiophen-5-yl)methyl) (phenoxy)phosphoryl)-L-alaninate]: 100 to 1000 nM.
Turning to `CCCOC(=O)[C@H](C)NP(=O)(Cc1ccc2sc(C(=O)N[C@H]3CC[C@@H](C)C[C@H]4CC[C@@H](C(=O)N5CC(c6cnccc6C)C5)N4C3=O)cc2c1)Oc1ccccc1` (stereo partly drawn) [Compound 287, propyl (((2-(((3S,6S,9R,10aR)-9-methyl-3-(3-(4-methylpyridin-3-yl)azetidine-1-carbonyl)-5-oxodecahydropyrrolo [1,2-a]azocin-6-yl)carbamoyl)benzo [b]thiophen-5-yl)methyl)(phenoxy)phosphoryl)-L-alaninate], the IC50 was under 100 nM.
The same measure for `CCCOC(=O)[C@H](C)N[P@](=O)(Oc1ccccc1)[C@H](F)c1ccc2sc(C(=O)N[C@H]3CCC[C@H]4CC[C@@H](C(=O)N5CC(c6cnccc6N(C)C)C5)N4C3=O)cc2c1` (stereo in doubt) [Compound 953]: under 100 nM; for `CCCOC(=O)[C@H](C)NP(=O)(Oc1ccccc1)[C@@H](F)c1ccc2sc(C(=O)N[C@H]3CCC[C@H]4CC[C@@H](C(=O)N5CC(c6cnccc6F)C5)N4C3=O)cc2c1` (stereo partly drawn) [Compound 994, propyl (((R)-fluoro(2-(((3S,6S,9aS)-3-(3-(4-fluoropyridin-3-yl)azetidine-1-carbonyl)-5-oxooctahydro-1H-pyrrolo[1,2-a]azepin-6-yl)carbamoyl)benzo [b]thiophen-5-yl)methyl)(phenoxy)phosphoryl)-L-alaninate]: 100 to 1000 nM; for `CC[C@H](C)OC(=O)[C@H](C)NP(=O)(Cc1ccc2sc(C(=O)N[C@H]3CCC[C@H]4CC[C@@H](C(=O)N5CC(c6cccnc6)C5)N4C3=O)cc2c1)Oc1ccccc1` (stereo partly drawn) [Compound 276, (S)-sec-butyl (((2-(((3S,6S,9aS)-5-oxo-3-(3-(pyridin-3-yl)azetidine-1-carbonyl)octahydro-1H-pyrrolo[1,2-a]azepin-6-yl)carbamoyl)benzo [b]thiophen-5-yl)methyl)(phenoxy)phosphoryl)-L-alaninate]: 100 to 1000 nM.
On to `CCCOC(=O)[C@H](C)NP(=O)(Cc1ccc2sc(C(=O)N[C@H]3CC(C)C[C@H]4CC[C@@H](C(=O)N5CC(c6cnccc6C)C5)N4C3=O)cc2c1)Oc1ccccc1` (stereo partly drawn) [Compound 251, propyl (((2-(((3S,6S,9aR)-8-methyl-3-(3-(4-methylpyridin-3-yl)azetidine-1-carbonyl)-5-oxooctahydro-1H-pyrrolo[1,2-a]azepin-6-yl)carbamoyl)benzo [b]thiophen-5-yl)methyl)(phenoxy)phosphoryl)-L-alaninate], for which the IC50 is under 100 nM.
